Assay in all cases: growth of human tumour cells (NCI), 48 h
The test system of assay [1] is EKVX.
The subject of assay [2] is HCC 2998.
In assay [3] the test system is HCT-116.
Assay [4] has as its system HCT-15.
Assay [5] relates to IGROV-1.
Assay [6] relates to K562.
Assay [7] has as its system NCI-H23.
The test system of assay [8] is NCI-H460.
For assay [9], the system named is NCI-H522.
Assay [10] concerns SK-OV-3.
In assay [11] the test system is SNB-75.
In assay [12] the test system is SR.
The test system of assay [13] is TK-10.
For assay [14], the system named is U-251.
In assay [15] the test system is UACC-257.
The subject of assay [16] is UO-31.
Assay [17] deals with MDA-MB-435.
The subject of assay [18] is NCI/ADR-RES.
Assay [19] deals with PC-3.

The source of these data is ChEMBL document CHEMBL1201862, “PubChem BioAssay data set” (2004).

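Five compound concentrations were applied to cells in 96-well plates for 48 hours; endpoints were derived by simple linear interpolation of the resulting dose-response curve. GI50 = concentration required for 50% inhibition of growth.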 Active and inactive are the calls of the source. Cut-off read from the data, not from the text of the source: active = GI50 up to about 1.1 µM and inactive = higher.

For the compound `Nc1nc(Cl)cc(NCCCCCCCCCCNc2cc(Cl)nc(N)n2)n1`, the GI50 is 4 µM (inactive) in assay [1]; 22.8 µM (inactive) in [2]; 0.196 µM (active) in [3]; 3.55 µM in [4]; 22.2 µM (inactive) in assay [5]; 0.0897 µM (active) in [6]. In addition, the GI50 in [7] is 0.415 µM (active); in assay [8], 5.96 µM (inactive); in assay [9], 0.415 µM (active); in assay [10], 87.3 µM (inactive); in assay [11] it was 22.6 µM (inactive); in [12] it was 2.62 µM (inactive). In addition, the GI50 was 16.5 µM (inactive) in [13], 4.21 µM (inactive) in assay [14], 1.05 µM (active) in assay [15] and 11.3 µM (inactive) in [16].
Take `[N-]=[N+]=Nc1cc(=O)n(-c2ccccc2)c(=O)n1-c1ccccc1`: the GI50 in [1], in [3], in assay [5], in assay [6], in assay [17] and in assay [7] was > 100 µM (inactive) throughout. Further, the GI50 in assay [9], in assay [18], in [19], in assay [10], in [11] and in [12] was > 100 µM (inactive) each time. The GI50 in [13], in [14], in assay [15] and in [16] was > 100 µM (inactive) in each case.
As to `C1CN2N3CCCC23C1` (configuration not stated), the GI50 was > 100 µM (inactive) in assay [1]; > 100 µM (inactive) in assay [2]; > 100 µM (inactive) in [3]; more than 100 µM in [4]; > 100 µM (inactive) in [5]; > 100 µM (inactive) in assay [6]. In addition, the GI50 in [7], in [8], in assay [9], in [10], in assay [11] and in assay [12] was > 100 µM (inactive) in each case. Further, the GI50 in [13], in assay [14], in [15] and in [16] was > 100 µM (inactive) throughout.
In the case of `CCN(CC)Cc1ccc(C(=S)Nc2ccc(C)cc2)s1`, the GI50 in assay [1] is 16.2 µM (inactive); in assay [2], 12.9 µM (inactive); in [3] it was 15.1 µM (inactive); in assay [4], 16.4 µM; in [5], 10.9 µM (inactive); in assay [6] it was 6.59 µM (inactive). In addition, the GI50 was 12.2 µM (inactive) in assay [17]; 8.09 µM (inactive) in assay [7]; 15.4 µM (inactive) in assay [8]; 14.6 µM (inactive) in [9]; 19.2 µM (inactive) in assay [18]; 14.3 µM (inactive) in assay [19]. Further, the GI50 in assay [10] was 15.6 µM (inactive); in assay [12], 12.1 µM (inactive); in [14], 14.7 µM (inactive); in [15], 11.4 µM (inactive); in assay [16], 15.5 µM (inactive).
As to `O=C(N[C@@H]1C=CCC[C@@H]1c1ccccc1)OCc1ccccc1`, the GI50 is 23.2 µM (inactive) in [1]; 20.6 µM (inactive) in [2]; 18.1 µM (inactive) in assay [3]; 17.9 µM in [4]; 24.2 µM (inactive) in assay [5]; 23.7 µM (inactive) in assay [6]. Moreover, the GI50 in assay [7] is 22.8 µM (inactive); in assay [8], 17.9 µM (inactive); in [9] it was 14.8 µM (inactive); in assay [10], 30.4 µM (inactive); in [11], 19.6 µM (inactive); in assay [12], 15.1 µM (inactive). Further, the GI50 was 15.3 µM (inactive) in assay [13], 17.5 µM (inactive) in [14], 17.5 µM (inactive) in [15] and 18.1 µM (inactive) in assay [16].
Consider `Cc1ccc2nc3ccccc3c(C3C4C(=O)N(c5ccc(F)cc5)C(=O)C4ON3C(C(N)=O)c3ccccc3)c2c1` (configuration not stated), for which the GI50 in assay [1] is 30.5 µM (inactive); in assay [3], 26.4 µM (inactive); in assay [4] it was 27.2 µM; in [5], 25.4 µM (inactive); in assay [6], 50.6 µM (inactive); in assay [17] it was 26.2 µM (inactive). The GI50 in assay [7] was 29.9 µM (inactive); in [8], 34.8 µM (inactive); in assay [9] it was 17.5 µM (inactive); in assay [18] it was 29.2 µM (inactive); in [19] it was 55.2 µM (inactive); in assay [10], 33.2 µM (inactive). Moreover, the GI50 was 76.9 µM (inactive) in [11]; 40.9 µM (inactive) in assay [12]; 55.6 µM (inactive) in [13]; 29.4 µM (inactive) in [14]; 42.7 µM (inactive) in assay [15]; 36.1 µM (inactive) in [16].
On to `COC(=O)C1(C(=O)OC)N=C(C)OC1c1ccccc1O` (configuration not stated), for which the GI50 in [1] is > 100 µM (inactive); in [2] it was > 100 µM (inactive); in assay [3] it was > 100 µM (inactive); in assay [4], more than 100 µM; in [5], > 100 µM (inactive); in [6], > 100 µM (inactive). Also, the GI50 in [17], in assay [7], in [8], in [18], in [19] and in assay [10] was > 100 µM (inactive) throughout. Besides, the GI50 in assay [11], in assay [12], in [13], in assay [14], in assay [15] and in assay [16] was > 100 µM (inactive) in each case.
For `O=C(CCc1ccccc1)On1nnc2ccccc2c1=O`, the GI50 is > 100 µM (inactive) in [1]; > 100 µM (inactive) in [2]; > 100 µM (inactive) in assay [3]; more than 100 µM in assay [4]; > 100 µM (inactive) in assay [5]; > 100 µM (inactive) in assay [6]. The GI50 in assay [7], in assay [8], in [9], in assay [10], in [11] and in assay [12] was > 100 µM (inactive) in each case. Besides, the GI50 was 26.5 µM (inactive) in assay [13], > 100 µM (inactive) in assay [14], > 100 µM (inactive) in assay [15] and > 100 µM (inactive) in assay [16].
For `CC(=O)OCC(=O)[C@@]1(O)CC[C@H]2[C@@H]3C[C@H](C)C4=CC(=O)C=C[C@]4(C)[C@@]3(F)[C@@H](O)C[C@@]21C`, the GI50 in [1] was > 100 µM (inactive); in assay [2], > 100 µM (inactive); in assay [3], > 100 µM (inactive); in assay [4] it was more than 100 µM; in assay [5], > 100 µM (inactive); in assay [6], > 100 µM (inactive). In addition, the GI50 is > 100 µM (inactive) in assay [7]; > 100 µM (inactive) in [8]; > 100 µM (inactive) in [9]; 0.0131 µM (active) in assay [10]; 73.8 µM (inactive) in [11]; 96.4 µM (inactive) in [12]. Moreover, the GI50 was > 100 µM (inactive) in assay [13], 60.4 µM (inactive) in assay [14], > 100 µM (inactive) in assay [15] and 81.1 µM (inactive) in assay [16].
As to `CCOC(=O)C(=O)C=P(c1ccccc1)(c1ccccc1)c1ccccc1`, the GI50 in assay [1] was > 100 µM (inactive); in assay [2], > 100 µM (inactive); in [3], > 100 µM (inactive); in assay [4], more than 100 µM; in [5], > 100 µM (inactive); in assay [6], > 100 µM (inactive). Also, the GI50 in assay [7] is > 100 µM (inactive); in [8] it was 34.6 µM (inactive); in [9], > 100 µM (inactive); in assay [10], > 100 µM (inactive); in assay [11], > 100 µM (inactive); in [12], > 100 µM (inactive). Moreover, the GI50 in assay [13], in [14], in assay [15] and in assay [16] was > 100 µM (inactive) in each case.
In the case of `Nc1ncc(/C=N/O)c(NCC2(CO)CC(CCc3ccccc3)C2)n1` (configuration not stated), the GI50 in [2] was 15.5 µM (inactive); in assay [3], 0.0569 µM (active); in assay [4], 13.1 µM; in [5] it was 6.75 µM (inactive); in [6], 0.144 µM (active); in [17], 11.1 µM (inactive). The GI50 in assay [8] was 5.74 µM (inactive); in assay [9], 3.22 µM (inactive); in assay [18], 5.82 µM (inactive); in assay [19], 13.9 µM (inactive); in assay [11], 14.5 µM (inactive); in assay [12], 4.36 µM (inactive). The GI50 was > 10 µM (inactive) in assay [13], 12 µM (inactive) in [14], 10.9 µM (inactive) in assay [15] and 5.45 µM (inactive) in [16].
Turning to `C[C@H](CCC1SC1(C)C)C1CCC2(C)C3=C(CC[C@]12C)[C@@]1(C)CC[C@H](O)C(C)(C)C1CC3` (some centres not stated), the GI50 in [1] is > 100 µM (inactive); in assay [2] it was > 100 µM (inactive); in assay [3], > 100 µM (inactive); in [4] it was more than 100 µM; in assay [5] it was > 100 µM (inactive); in assay [6] it was > 100 µM (inactive). In addition, the GI50 in assay [7] is > 100 µM (inactive); in [8], > 100 µM (inactive); in [9], > 100 µM (inactive); in assay [10], > 100 µM (inactive); in assay [11] it was 75.2 µM (inactive); in assay [12], > 100 µM (inactive). The GI50 is > 100 µM (inactive) in [13], > 10 µM (inactive) in assay [14], > 100 µM (inactive) in [15] and > 100 µM (inactive) in [16].
